Results as given in ChEMBL document CHEMBL1131036, “Structure-based design, synthesis, and biological evaluation of irreversible human rhinovirus 3C protease inhibitors. 1. Michael acceptor structure-activity studies” (J Med Chem, 1998).
pEC50: −log10 of the molar value.

Legend:
HeLa [1] = experiment: Formazan production in HRV-14 virus infected cells; type: functional, cell-based; details: Homo sapiens
HeLa [2] = experiment: Concentration of compound that decreased the percentage of formazan production in treated HRV-14 virus infected cells to that produced in uninfected cells; type: functional; details: Homo sapiens
[3] = biological target: T1, Human rhinovirus A protease (Human rhinovirus sp.) (UniProt Q4U254); experiment: Catalytic rate constant (Kobs/[I]) evaluated against human rhinovirus (HRV) serotype 14 3C Protease (3CP); details: Human rhinovirus B (HRV-14)
T1 sequence (whole entry): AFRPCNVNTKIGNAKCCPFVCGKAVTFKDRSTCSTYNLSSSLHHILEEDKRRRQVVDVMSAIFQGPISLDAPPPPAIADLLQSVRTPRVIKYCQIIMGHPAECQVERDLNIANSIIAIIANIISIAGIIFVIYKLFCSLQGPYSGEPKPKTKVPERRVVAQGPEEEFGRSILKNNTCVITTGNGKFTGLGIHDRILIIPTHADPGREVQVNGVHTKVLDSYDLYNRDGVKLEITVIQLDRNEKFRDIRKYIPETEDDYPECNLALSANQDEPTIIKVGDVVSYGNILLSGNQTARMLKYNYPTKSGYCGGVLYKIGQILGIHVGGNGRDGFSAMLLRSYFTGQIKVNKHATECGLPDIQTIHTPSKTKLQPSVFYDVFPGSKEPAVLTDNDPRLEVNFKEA

| Structure (SMILES) | pEC50 (HeLa [1]) | CC50 (HeLa [2]) | K obs / 1 [3] |
| --- | --- | --- | --- |
| CC(C)C[C@H](NC(=O)OCc1ccccc1)C(=O)N[C@@H](Cc1ccccc1)C(=O)N[C@H](/C=C/C(=O)N1CCCCO1)CCC(N)=O | 4.80 | 100 µM | 19000 M⁻¹ s⁻¹ |
| CC(C)C[C@H](NC(=O)OCc1ccccc1)C(=O)N[C@@H](Cc1ccccc1)C(=O)N[C@H](/C=C/C(=O)N1CCC(O)C1)CCC(N)=O (some centres undefined) | < 3.49 | > 320 µM | 1200 M⁻¹ s⁻¹ |
| CO/N=C/C=C/[C@H](CCC(N)=O)NC(=O)[C@H](Cc1ccccc1)NC(=O)[C@H](CC(C)C)NC(=O)OCc1ccccc1 | 4.00 | > 320 µM | 0 M⁻¹ s⁻¹ |
| CCOC(=O)/C(F)=C/[C@H](CCC(N)=O)NC(=O)[C@H](Cc1ccccc1)NC(=O)[C@H](CC(C)C)NC(=O)OCc1ccccc1 | < 3.49 | > 320 µM | 60 M⁻¹ s⁻¹ |
| CON1CC/C(=C\[C@H](CCC(N)=O)NC(=O)[C@H](Cc2ccccc2)NC(=O)[C@H](CC(C)C)NC(=O)OCc2ccccc2)C1=O | 4.74 | > 100 µM | 800 M⁻¹ s⁻¹ |
| CC(C)C[C@H](NC(=O)OCc1ccccc1)C(=O)N[C@@H](Cc1ccccc1)C(=O)N[C@H](/C=C/C(=O)c1ccc([N+](=O)[O-])cc1)CCC(N)=O | 4.49 | 32 µM | 310000 M⁻¹ s⁻¹ |
| CC(C)C[C@H](NC(=O)OCc1ccccc1)C(=O)N[C@@H](Cc1ccccc1)C(=O)N[C@H](/C=C/C(=O)n1ccc2ccccc21)CCC(N)=O | 5.74 | 29 µM | 53000 M⁻¹ s⁻¹ |
| CCNC(=O)/C=C/[C@H](CCC(N)=O)NC(=O)[C@H](Cc1ccccc1)NC(=O)[C@H](CC(C)C)NC(=O)OCc1ccccc1 | < 3.49 | > 320 µM | 350 M⁻¹ s⁻¹ |
| COc1ccc2c(c1)CCN2C(=O)/C=C/[C@H](CCC(N)=O)NC(=O)[C@H](Cc1ccccc1)NC(=O)[C@H](CC(C)C)NC(=O)OCc1ccccc1 | < 3.49 | > 320 µM | 3400 M⁻¹ s⁻¹ |
| CC(C)C[C@H](NC(=O)OCc1ccccc1)C(=O)N[C@@H](Cc1ccccc1)C(=O)N[C@H](/C=C/C(=O)OCc1ccccc1)CCC(N)=O | 5.49 | > 100 µM | 39400 M⁻¹ s⁻¹ |
| CC(C)C[C@H](NC(=O)OCc1ccccc1)C(=O)N[C@@H](Cc1ccccc1)C(=O)N[C@H](/C=C/C(=O)OC1CCCC1)CCC(N)=O | 6.25 | > 100 µM | 14600 M⁻¹ s⁻¹ |
| CCN(CC)c1ccc(C(=O)/C=C/[C@H](CCC(N)=O)NC(=O)[C@H](Cc2ccccc2)NC(=O)[C@H](CC(C)C)NC(=O)OCc2ccccc2)cc1 | < 4.60 | 25 µM | 4500 M⁻¹ s⁻¹ |
| COC(=O)/C=C/[C@H](CCC(N)=O)NC(=O)[C@H](Cc1ccccc1)NC(=O)[C@H](CC(C)C)NC(=O)OCc1ccccc1 | 5.89 | > 320 µM | 20000 M⁻¹ s⁻¹ |
| CC(C)C[C@H](NC(=O)OCc1ccccc1)C(=O)N[C@@H](Cc1ccccc1)C(=O)N[C@H](/C=C/C(=O)N1CCc2cccc(S(C)(=O)=O)c21)CCC(N)=O | < 3.49 | > 320 µM | < 1000 M⁻¹ s⁻¹ |
| CC(C)C[C@H](NC(=O)OCc1ccccc1)C(=O)N[C@@H](Cc1ccccc1)C(=O)N[C@H](/C=C/C(=O)N1CCc2cc(Cl)ccc21)CCC(N)=O | 5.25 | 56 µM | 450 M⁻¹ s⁻¹ |
| CC(C)C[C@H](NC(=O)OCc1ccccc1)C(=O)N[C@@H](Cc1ccccc1)C(=O)N[C@H](/C=C/C(=O)N1CCc2cc(Br)ccc21)CCC(N)=O | 4.33 | > 320 µM | 5800 M⁻¹ s⁻¹ |
| CC(C)C[C@H](NC(=O)OCc1ccccc1)C(=O)N[C@@H](Cc1ccccc1)C(=O)N[C@H](/C=C/C(=O)N(C)O)CCC(N)=O | 4.38 | 42 µM | 1800 M⁻¹ s⁻¹ |
| CC(C)C[C@H](NC(=O)OCc1ccccc1)C(=O)N[C@@H](Cc1ccccc1)C(=O)N[C@H](/C=C/C(=O)N1CCCO1)CCC(N)=O | 4.35 | > 320 µM | 14000 M⁻¹ s⁻¹ |
| CC(C)C[C@H](NC(=O)OCc1ccccc1)C(=O)N[C@@H](Cc1ccccc1)C(=O)N[C@H](/C=C/C(=O)N1CCCc2ccccc21)CCC(N)=O | 3.90 | > 320 µM | 1000 M⁻¹ s⁻¹ |
| COc1ccc(C(=O)/C=C/[C@H](CCC(N)=O)NC(=O)[C@H](Cc2ccccc2)NC(=O)[C@H](CC(C)C)NC(=O)OCc2ccccc2)cc1 | 4.66 | 100 µM | 150000 M⁻¹ s⁻¹ |
| CC(C)C[C@H](NC(=O)OCc1ccccc1)C(=O)N[C@@H](Cc1ccccc1)C(=O)N[C@H](/C=C/c1ccccn1)CCC(N)=O | < 4.00 | > 100 µM | 120 M⁻¹ s⁻¹ |
| CC(C)C[C@H](NC(=O)OCc1ccccc1)C(=O)N[C@@H](Cc1ccccc1)C(=O)N[C@H](/C=C/C(=O)N1CCc2ccc(S(=O)(=O)N3CCCC3)cc21)CCC(N)=O | < 3.49 | > 320 µM | 22700 M⁻¹ s⁻¹ |

| Structure (SMILES) | pEC50 (HeLa [1]) | CC50 (HeLa [2]) | K obs / 1 [3] |
| --- | --- | --- | --- |
| CC(C)C[C@H](NC(=O)OCc1ccccc1)C(=O)N[C@@H](Cc1ccccc1)C(=O)N[C@H](/C=C/C(=O)c1ccccc1)CCC(N)=O | 5.40 | 16 µM | 500000 M⁻¹ s⁻¹ |
| CC(C)C[C@H](NC(=O)OCc1ccccc1)C(=O)N[C@@H](Cc1ccccc1)C(=O)N[C@H](/C=C/C(=O)Nc1ccccc1)CCC(N)=O | < 3.49 | > 320 µM | 200 M⁻¹ s⁻¹ |
| CSc1cccc2c1N(C(=O)/C=C/[C@H](CCC(N)=O)NC(=O)[C@H](Cc1ccccc1)NC(=O)[C@H](CC(C)C)NC(=O)OCc1ccccc1)CC2 |  |  | 300 M⁻¹ s⁻¹ |
| CC(C)C[C@H](NC(=O)OCc1ccccc1)C(=O)N[C@@H](Cc1ccccc1)C(=O)N[C@H](/C=C/S(C)(=O)=O)CCC(N)=O | < 3.49 | > 320 µM | 160 M⁻¹ s⁻¹ |
| CC(C)C[C@H](NC(=O)OCc1ccccc1)C(=O)N[C@@H](Cc1ccccc1)C(=O)N[C@H](/C=C/C(=O)N1CCc2ccc(S(C)(=O)=O)cc21)CCC(N)=O | < 3.49 | > 320 µM | 12900 M⁻¹ s⁻¹ |
| CC(C)C[C@H](NC(=O)OCc1ccccc1)C(=O)N[C@@H](Cc1ccccc1)C(=O)N[C@H](/C=C/C(=O)N(C)c1ccccc1)CCC(N)=O | 3.80 | > 320 µM | 580 M⁻¹ s⁻¹ |
| CC(C)C[C@H](NC(=O)OCc1ccccc1)C(=O)N[C@@H](Cc1ccccc1)C(=O)N[C@H](/C=C/C(=O)N1CCc2cccc(Cl)c21)CCC(N)=O | 4.25 | > 320 µM | 5400 M⁻¹ s⁻¹ |
| CC(C)C[C@H](NC(=O)OCc1ccccc1)C(=O)N[C@@H](Cc1ccccc1)C(=O)N[C@H](/C=C/C(=O)N1CCc2cc(F)ccc21)CCC(N)=O | 4.96 | > 320 µM | 5400 M⁻¹ s⁻¹ |
| CC(C)C[C@H](NC(=O)OCc1ccccc1)C(=O)N[C@@H](Cc1ccccc1)C(=O)N[C@H](/C=C/C(=O)O)CCC(N)=O | < 4.00 | > 320 µM | 30 M⁻¹ s⁻¹ |
| CC(C)C[C@H](NC(=O)OCc1ccccc1)C(=O)N[C@@H](Cc1ccccc1)C(=O)N[C@H](/C=C/C#N)CCC(N)=O | 4.74 | > 320 µM | 0 M⁻¹ s⁻¹ |
| CC(C)C[C@H](NC(=O)OCc1ccccc1)C(=O)N[C@@H](Cc1ccccc1)C(=O)N[C@H](/C=C/C(=O)C(C)(C)C)CCC(N)=O | 5.77 | 5.6 µM | 15000 M⁻¹ s⁻¹ |
| CC(C)C[C@H](NC(=O)OCc1ccccc1)C(=O)N[C@@H](Cc1ccccc1)C(=O)N[C@H](/C=C/C(=O)NC1CCCC1)CCC(N)=O | < 4.00 | > 320 µM | 250 M⁻¹ s⁻¹ |
| CC(C)C[C@H](NC(=O)OCc1ccccc1)C(=O)N[C@@H](Cc1ccccc1)C(=O)N[C@H](/C=C/C(=O)n1cccc1)CCC(N)=O | 5.85 | 6.3 µM | 400000 M⁻¹ s⁻¹ |
| CC(C)C[C@H](NC(=O)OCc1ccccc1)C(=O)N[C@@H](Cc1ccccc1)C(=O)N[C@H](/C=C/C(=O)c1ccc(C#N)cc1)CCC(N)=O | 4.30 | > 320 µM | 200000 M⁻¹ s⁻¹ |
| COC(=O)/C=C\[C@H](CCC(N)=O)NC(=O)[C@H](Cc1ccccc1)NC(=O)[C@H](CC(C)C)NC(=O)OCc1ccccc1 | 5.49 | > 320 µM | 2400 M⁻¹ s⁻¹ |
| CC(C)C[C@H](NC(=O)OCc1ccccc1)C(=O)N[C@@H](Cc1ccccc1)C(=O)N[C@H](/C=C/C(=O)N(C)C)CCC(N)=O | 4.25 | > 100 µM | 1300 M⁻¹ s⁻¹ |
| CC(C)C[C@H](NC(=O)OCc1ccccc1)C(=O)N[C@@H](Cc1ccccc1)C(=O)N[C@H](/C=C/C(=O)OCC(C)(C)C)CCC(N)=O | 6.30 | > 100 µM | 9800 M⁻¹ s⁻¹ |
| CC(C)C[C@H](NC(=O)OCc1ccccc1)C(=O)N[C@@H](Cc1ccccc1)C(=O)N[C@H](/C=C/C(=O)N1CCCC1)CCC(N)=O | 4.66 | > 100 µM | 2100 M⁻¹ s⁻¹ |
| CC(C)C[C@H](NC(=O)OCc1ccccc1)C(=O)N[C@@H](Cc1ccccc1)C(=O)N[C@H](/C=C/c1cocn1)CCC(N)=O | < 4.00 | > 100 µM | 0 M⁻¹ s⁻¹ |
| CCOP(=O)(/C=C/[C@H](CCC(N)=O)NC(=O)[C@H](Cc1ccccc1)NC(=O)[C@H](CC(C)C)NC(=O)OCc1ccccc1)OCC | < 3.49 | > 320 µM | 0 M⁻¹ s⁻¹ |
| CC(C)C[C@H](NC(=O)OCc1ccccc1)C(=O)N[C@@H](Cc1ccccc1)C(=O)N[C@H](/C=C/c1ccno1)CCC(N)=O | < 3.49 | > 320 µM | 600 M⁻¹ s⁻¹ |
| CC(C)C[C@H](NC(=O)OCc1ccccc1)C(=O)N[C@@H](Cc1ccccc1)C(=O)N[C@H](/C=C1\CCCOC1=O)CCC(N)=O | 4.80 | > 100 µM |  |
